Patent US6921848B2, “Genes involved in brassinosteroid hormone action in plants” (The Salk Institute for Biological Studies, priority 2001, dated 2005)

Legend:
Arabidopsis plants [1] = experiment: Brassinazole application to Arabidopsis plants (mutant screen); type: in vivo, Arabidopsis thaliana; settings: EMS mutagenized Arabidopsis plants, most plants
Description: EMS mutagenized Arabidopsis seeds were grown into plants that were then subjected to a suppressor screen for mutants insensitive to the brassinosteroid pathway inhibitor brassinazole. […] The mutant protein is herein referred to as bzr1-D (SEQ ID NO. 7).
(§1) The mutagenized plants were put through a screening procedure based on the use of brassinazole, a triazole-type brassinosteroid biosynthesis inhibitor (Asami, et al., Plant Physiol. 123: 93, 2000).

Arabidopsis plants [2] = settings: normal Arabidopsis plants; cited from earlier work
bzr1-D mutant = experiment: Brassinazole sensitivity of the bzr1-D mutant; type: in vivo, Arabidopsis thaliana
From the text: as §1
The dark-grown bzr1-D mutant is insensitive to brassinazole inhibition of hypocotyl elongation. The bzr1-D mutant has a curly hypocotyl similar to that of a seedling grown on medium containing brassinosteroids.

For `CC(O)(c1ccccc1)C(Cc1ccc(Cl)cc1)n1cncn1` (stereo not shown) [brassinazole], the “Phenotype of plants treated with brassinazole” value (Arabidopsis plants [1]) is given as “stunted”, the “Effects of brassinazole application” value (Arabidopsis plants [2]) is given as “dwarfism, altered leaf morphology, darker greening of leaves, and decreased hypocotyl length” and the Bassinazole sensitivity (bzr1-D mutant; dark-grown) is given as “insensitive”. For the same compound, the Bassinazole sensitivity (bzr1-D mutant; light-grown) was “partially sensitive”.
